Consider four molecules from patent US6534530B1, “Antipicornaviral compounds and compositions, their pharmaceutical uses, and materials for their synthesis” (Agouron Pharmaceuticals, Inc., priority 1999, dated 2003).

Data set [1] in a line: in vitro. Conditions: human, mock-infected H1-HeLa cells.
For data set [2], the target named is T1, recombinant rhinovirus 3C protease, serotype 14 (Human rhinovirus 14, UniProt P03303).
T1 construct: Recombinant rhinovirus 3C proteases; made in house
The data set can be described thus: Inhibition of rhinovirus 3C protease (FRET assay), serotype 14. Format: biochemical. As for the experimental part:
(§1) Stock solutions (50 mM, in DMSO) of various compounds were prepared; dilutions were in the same solvent. Recombinant rhinovirus 3C proteases (see Birch et al., “Purification of recombinant human rhinovirus 14 3C protease expressed in Escherichia coli,” Protein Expr. Pur. (1995), vol. 6(5), 609-618) from serotypes 14, 16, and 2 were prepared by the following standard chromatographic procedures: (1) ion exchange using Q Sepharose Fast Flow from Pharmacia; (2) affinity chromatography using Affi-Gel Blue from Biorad; and (3) sizing using Sephadex G-100 from Pharmacia. Each assay sample contained 2% DMSO, 50 mM tris pH 7.6, 1 mM EDTA, a test compound at the indicated concentration, approximately 1 μM substrate, and 50-100 nM protease. The kobs/I values were obtained from reactions initiated by addition of enzyme rather than substrate. RVP activity was measured in the fluorescence resonance energy transfer assay. The substrate was (N-terminal) DABCYL-([…]-EDANS. In the uncleaved peptide, the EDANS fluorescence was quenched by the proximal DABCYL moiety. When the peptide was cleaved, the quenching was relieved, and activity was measured as an increase in fluorescence signal. The tabulated data in the column designated kobs/[I] were measured from progress curves in enzyme start experiments.

In data set [3] the test system is HRV-14. The data set can be described thus: Antirhinoviral H1-HeLa cell culture assay (XTT), HRV-14. Format: cell-based, human rhinovirus. Conditions: Rhinovirus B, HRV14, HRV-14, H1-HeLa cells. For orientation: Formazan colour is commonly taken as a measure of viable cells.
Data set [4] has as its system HRV-16. Put plainly: Antirhinoviral H1-HeLa cell culture assay (XTT), HRV-16. Format: cell-based. Conditions: Human rhinovirus sp., HRV16, HRV-16, H1-HeLa cells. From the text:
(§2) (1989), vol. 81, 577-586.

Data set [5] addresses T2, recombinant rhinovirus 3C protease, serotype 16 (Human rhinovirus 16, UniProt Q82122).
T2 construct: Recombinant rhinovirus 3C proteases; made in house
The data set can be described thus: Inhibition of rhinovirus 3C protease (FRET assay), serotype 16. In kind it is biochemical. To be noted: HRV-16 3C protease. As for the experimental part:
as §1

The target of data set [6] is T3, rhinovirus 3C protease, HRV-89 (Human rhinovirus A serotype 89, UniProt P07210).
T3 construct: Recombinant rhinovirus 3C proteases
T3 sequence (P07210 1522-1704): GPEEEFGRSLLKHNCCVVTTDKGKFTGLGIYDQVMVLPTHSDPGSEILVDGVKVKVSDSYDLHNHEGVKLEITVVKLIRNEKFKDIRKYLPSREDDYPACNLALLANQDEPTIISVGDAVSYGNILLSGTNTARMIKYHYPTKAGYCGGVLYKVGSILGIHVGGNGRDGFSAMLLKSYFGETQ
The data set can be described thus: Inhibition of rhinovirus 3C protease (FRET assay), serotype 89. To be noted: HRV-89 3C protease. In kind it is biochemical, human rhinovirus 89.

Data set [7] addresses T4, recombinant rhinovirus 3C protease, serotype 2 (Human rhinovirus 2, UniProt P04936).
T4 construct: Recombinant rhinovirus 3C proteases; made in house
The data set can be described thus: Inhibition of rhinovirus 3C protease (FRET assay), serotype 2. In kind it is biochemical. Conditions: HRV-2 3C protease. As for the experimental part:
as §1

Data set [8] has as its system H1-HeLa cells. The data set can be described thus: Cytotoxicity in mock-infected H1-HeLa cells (antirhinoviral assay, XTT). To be noted: HRV-89 row.
The test system of data set [9] is HRV-89. Put plainly: Antirhinoviral H1-HeLa cell culture assay (XTT), HRV-89. To be noted: Rhinovirus A, HRV89, HRV-89, H1-HeLa cells. In kind it is cell-based, human rhinovirus.
Text: as §2

Data set [10] concerns ECHO 11. The data set can be described thus: Anti-echoviral cell culture assay (XTT), ECHO 11 in MRC-5 cells. Conditions: Enterovirus B, MRC5, 96 h; ECHO-11, MRC-5 cells, four days. Format: cell-based, echovirus 11. How it is done: (§3) Echovirus type 11 (ECHO 11) was purchased from ATCC (Rockville, Md.). Virus stocks were propagated and antiviral assays were performed in MRC-5 cells (ATCC).

For data set [11], the system named is HRV-1A. Put plainly: Antirhinoviral H1-HeLa cell culture assay (XTT), HRV-1A. In kind it is cell-based, human rhinovirus. Conditions: Rhinovirus A, HRV1A, H1-HeLa cells.
Text: as §2

Data set [12] concerns CAV-21. Put plainly: Anticoxsackieviral cell culture assay (XTT), CAV-21. To be noted: Enterovirus C, 48 h; CAV-21, H1-HeLa cells, m.o.i. 0.025, two days. In kind it is cell-based, coxsackievirus A21.
Data set [13] in a line: Cytotoxicity in uninfected H1-HeLa cells (anticoxsackieviral assay, XTT). In kind it is cell-based. To be noted: human.
Data set [14] is described as follows: Cytotoxicity in uninfected MRC-5 cells (anti-echoviral assay, XTT). Format: cell-based. To be noted: human, ECHO-11 row. How it is done: as §3
For data set [15], the system named is HRV-10. Put plainly: Antirhinoviral H1-HeLa cell culture assay (XTT), HRV-10. Format: cell-based. Conditions: Human rhinovirus sp., HRV10, HRV-10, H1-HeLa cells.
Text: as §2

Data set [16] concerns CVB3. The data set can be described thus: Anticoxsackieviral cell culture assay (XTT), CVB3. In kind it is cell-based, coxsackievirus B3. To be noted: Enterovirus B, 24 h; CVB3, H1-HeLa cells, m.o.i. 0.075, one day.

T1 sequence (P03303 1538-1719): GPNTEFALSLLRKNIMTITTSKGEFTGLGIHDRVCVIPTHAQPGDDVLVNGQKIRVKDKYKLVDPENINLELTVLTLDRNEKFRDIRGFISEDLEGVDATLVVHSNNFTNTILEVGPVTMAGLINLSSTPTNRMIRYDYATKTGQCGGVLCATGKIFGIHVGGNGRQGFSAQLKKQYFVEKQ
T4 sequence (P04936 1508-1690): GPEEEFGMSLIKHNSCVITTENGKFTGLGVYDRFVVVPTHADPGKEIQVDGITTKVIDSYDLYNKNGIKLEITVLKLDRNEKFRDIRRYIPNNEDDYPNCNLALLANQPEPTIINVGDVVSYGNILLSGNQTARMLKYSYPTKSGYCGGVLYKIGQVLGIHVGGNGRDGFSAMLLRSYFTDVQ
T2 sequence (Q82122 1511-1693): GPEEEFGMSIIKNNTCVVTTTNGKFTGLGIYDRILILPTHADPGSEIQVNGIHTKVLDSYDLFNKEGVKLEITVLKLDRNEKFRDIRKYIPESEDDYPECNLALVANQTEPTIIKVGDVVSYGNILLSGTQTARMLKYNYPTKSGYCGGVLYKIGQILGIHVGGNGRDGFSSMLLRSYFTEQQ

The term CC50 denotes the concentration giving 50% cytotoxicity. A word on the Ki: it is the dissociation constant of the complex between target and ligand, obtained from inhibition or displacement. Usually EC50 stands for the concentration needed to bring the measured effect to its halfway point. Higher therefore signals weaker potency. Molecule `CC(=O)NC[C@H](NC(=O)[C@H](Cc1ccccc1)NC(=O)[C@H](CC(C)C)NC(=O)OCc1ccccc1)C(=O)c1nc2ccccc2s1` [Compound 9, Cbz-L-Leu-L-Phe-L-(N-Ac-amino-Ala)-2-Benzthiazole] gave a CC50 at 2 days in data set [1] of 25000 nM. Besides, the Ki in data set [2] turned out to be 1700 nM; in data set [5], 310 nM; in data set [6] it was 480 nM; in data set [7] it was 900 nM. Besides, the EC50 in data set [3] and in data set [4] was more than 25000 nM in each case.
In turn, `C#CC(=O)[C@H](CNC(C)=O)NC(=O)[C@H](Cc1ccccc1)NC(=O)[C@H](CC(C)C)NC(=O)OCc1ccccc1` [Compound 14, Cbz-L-Leu-L-Phe-L-(N-Ac-amino-Ala)-C≡CH] showed a CC50 at 2 days in data set [1] of more than 100000 nM. The molecule further registered a CC50 in data set [8] of more than 100000 nM. For the same molecule, the Ki is 65 nM in data set [2], 322 nM in data set [5], 760 nM in data set [6] and 124 nM in data set [7]. The EC50 in [3] and in [9] was more than 100000 nM each time.
For orientation: melting point means the temperature, or range, at which the solid turns liquid. Take `CC(C)C[C@H](NC(=O)OCc1ccccc1)C(=O)N[C@@H](Cc1ccccc1)C(=O)N[C@@H](C[C@@H]1CCNC1=O)C(=O)c1nccs1` [Compound 22, Cbz-L-Leu-L-Phe-L-[(S)-Pyrrol-Ala]-2-Thiazole]: the melting point was in the range of 83 to 85 °C. This molecule also came in with a CC50 at 2 days in [1] of 240000 nM. Moreover, the Ki in data set [2] was determined as 700 nM. The same molecule showed an EC50 in data set [3] of 7900 nM.
For the molecule `Cc1cc(C(=O)N[C@H](C(=O)N[C@@H](Cc2ccc(F)cc2)C(=O)N[C@@H](C[C@@H]2CCNC2=O)C(=O)c2nc3ccccc3s2)C(C)C)no1` [Compound 28, (5-Methylisoxazole-3-carboxyl)-L-Val-L-Phe(4-F)-L-[(S)-Pyrrol-Ala]-2-Benzthiazole], the 50% cytotoxic concentration (CC50) at 2 days in [1] and in data set [13] (CAV-21) was 251000 nM each time. Besides, the Ki in [2] came to 4.5 nM. Further, the EC50 was 335 nM in [3]; 821 nM in data set [10]; 337 nM in data set [11]; 4670 nM in data set [12]; 253 nM in data set [15]; 5790 nM in data set [16]. Also, the midpoint of cytotoxicity in data set [13] (CVB3), the CC50 at 1 day, lay at 251000 nM. The midpoint of cytotoxicity in [14], the CC50 at 4 days, lay at 251000 nM.
